Test results reported in patent US20150125889A1, “IN VITRO DETECTION OF MICROORGANISMS WITH AZOREDUCTASE ACTIVITY” (BIOMÉRIEUX, priority 2012, published 2015).

Experiments:
Assay in all cases: Reduction of azo substrates over 24 hours at 35° C., microtitration plate (Example 1)
Format in all cases: cell-based
[1] = system: Candida albicans; parameters: key to RED (substrate reduced or not): RED indicates whether the substrate is reduced (Y) or not (N); RED indicates whether the substrate is reduced (Y) or not (N); key to Co (growth, absorbance at 660 nm) / Decol (substrate decolourized, decrease in absorbance) / Fluo (fluorescence multiplied by 2 relative to substrate-free control): The symbol “+” means good growth/decolourization/significant increase in fluorescence; The symbol “+/−” means difficult growth; The symbol “−” means that there is no growth/decolourization/significant increase in fluorescence; conditions: substrate 35 mg/l
Protocol: (§1) Reduction of the “azo” function of the substrates listed in Table I by the species listed in Table II, each species being represented by a strain, is tested in a microtitration plate.
(§2) The reaction medium consists of: • Trypcase soya broth • Substrate 35 mg/l • 0.5 MacFarland inoculum
(§3) The reduction of the substrate and the growth of the microorganisms are monitored using an Infinite® M200 Tecan microplate reader at 35° C. over 24 hours.
(§4) The growth is monitored by the absorbance at 660 nm and the reduction of the substrates by absorbance and fluorescence at the specific wavelengths indicated in Table III.
(§5) The substrate is considered as reduced by the microorganisms when the substrate is decolourized (monitored by the decrease in absorbance) (Decol) and/or when the fluorescence of the substrate is multiplied by 2 relative to the base fluorescence of a substrate-free control (Fluo). The growth is indicated by Co. The symbol “+” means good growth/decolourization/significant increase in fluorescence. The symbol “+/−” means difficult growth. The symbol “−” means that there is no growth/decolourization/significant increase in fluorescence. RED indicates whether the substrate is reduced (Y) or not (N).

[2] = system: Cronobacter muytjensii; parameters: key to RED (substrate reduced or not): RED indicates whether the substrate is reduced (Y) or not (N); RED indicates whether the substrate is reduced (Y) or not (N); key to Co (growth, absorbance at 660 nm) / Decol (substrate decolourized, decrease in absorbance) / Fluo (fluorescence multiplied by 2 relative to substrate-free control): The symbol “+” means good growth/decolourization/significant increase in fluorescence; The symbol “+/−” means difficult growth; The symbol “−” means that there is no growth/decolourization/significant increase in fluorescence; conditions: E. muytjensii, substrate 35 mg/l
Protocol: as §1, §2, §3, §4, §5

[3] = system: Escherichia coli; parameters: key to RED (substrate reduced or not): RED indicates whether the substrate is reduced (Y) or not (N); RED indicates whether the substrate is reduced (Y) or not (N); key to Co (growth, absorbance at 660 nm) / Decol (substrate decolourized, decrease in absorbance) / Fluo (fluorescence multiplied by 2 relative to substrate-free control): The symbol “+” means good growth/decolourization/significant increase in fluorescence; The symbol “+/−” means difficult growth; The symbol “−” means that there is no growth/decolourization/significant increase in fluorescence; conditions: E. coli, substrate 35 mg/l
Protocol: as §1, §2, §3, §4, §5

[4] = system: Geotrichum candidum; parameters: key to RED (substrate reduced or not): RED indicates whether the substrate is reduced (Y) or not (N); RED indicates whether the substrate is reduced (Y) or not (N); key to Co (growth, absorbance at 660 nm) / Decol (substrate decolourized, decrease in absorbance) / Fluo (fluorescence multiplied by 2 relative to substrate-free control): The symbol “+” means good growth/decolourization/significant increase in fluorescence; The symbol “+/−” means difficult growth; The symbol “−” means that there is no growth/decolourization/significant increase in fluorescence; conditions: G. candidum, substrate 35 mg/l
Protocol: as §1, §2, §3, §4, §5

[5] = system: Kocuria rosea; parameters: key to RED (substrate reduced or not): RED indicates whether the substrate is reduced (Y) or not (N); RED indicates whether the substrate is reduced (Y) or not (N); key to Co (growth, absorbance at 660 nm) / Decol (substrate decolourized, decrease in absorbance) / Fluo (fluorescence multiplied by 2 relative to substrate-free control): The symbol “+” means good growth/decolourization/significant increase in fluorescence; The symbol “+/−” means difficult growth; The symbol “−” means that there is no growth/decolourization/significant increase in fluorescence; conditions: K. rosea, substrate 35 mg/l
Protocol: as §1, §2, §3, §4, §5

[6] = system: Pseudomonas aeruginosa; parameters: key to RED (substrate reduced or not): RED indicates whether the substrate is reduced (Y) or not (N); RED indicates whether the substrate is reduced (Y) or not (N); key to Co (growth, absorbance at 660 nm) / Decol (substrate decolourized, decrease in absorbance) / Fluo (fluorescence multiplied by 2 relative to substrate-free control): The symbol “+” means good growth/decolourization/significant increase in fluorescence; The symbol “+/−” means difficult growth; The symbol “−” means that there is no growth/decolourization/significant increase in fluorescence; conditions: P. aeruginosa, substrate 35 mg/l
Protocol: as §1, §2, §3, §4, §5

[7] = system: Staphylococcus aureus; parameters: key to RED (substrate reduced or not): RED indicates whether the substrate is reduced (Y) or not (N); RED indicates whether the substrate is reduced (Y) or not (N); key to Co (growth, absorbance at 660 nm) / Decol (substrate decolourized, decrease in absorbance) / Fluo (fluorescence multiplied by 2 relative to substrate-free control): The symbol “+” means good growth/decolourization/significant increase in fluorescence; The symbol “+/−” means difficult growth; The symbol “−” means that there is no growth/decolourization/significant increase in fluorescence; conditions: S. aureus, substrate 35 mg/l
Protocol: as §1, §2, §3, §4, §5

[8] = system: Staphylococcus epidermidis; parameters: key to RED (substrate reduced or not): RED indicates whether the substrate is reduced (Y) or not (N); RED indicates whether the substrate is reduced (Y) or not (N); key to Co (growth, absorbance at 660 nm) / Decol (substrate decolourized, decrease in absorbance) / Fluo (fluorescence multiplied by 2 relative to substrate-free control): The symbol “+” means good growth/decolourization/significant increase in fluorescence; The symbol “+/−” means difficult growth; The symbol “−” means that there is no growth/decolourization/significant increase in fluorescence; conditions: S. epidermidis, substrate 35 mg/l
Protocol: as §1, §2, §3, §4, §5

[9] = system: Acinetobacter baumanii; parameters: key to RED (substrate reduced or not): RED indicates whether the substrate is reduced (Y) or not (N); RED indicates whether the substrate is reduced (Y) or not (N); key to Decol (substrate decolourized, decrease in absorbance) / Fluo (fluorescence multiplied by 2 relative to substrate-free control) / Co (growth, absorbance at 660 nm): The symbol “+” means good growth/decolourization/significant increase in fluorescence; The symbol “+/−” means difficult growth; The symbol “−” means that there is no growth/decolourization/significant increase in fluorescence; conditions: A. baumannii, substrate 35 mg/l
Protocol: as §1, §2, §3, §4, §5

[10] = system: Enterococcus faecalis; parameters: key to RED (substrate reduced or not): RED indicates whether the substrate is reduced (Y) or not (N); RED indicates whether the substrate is reduced (Y) or not (N); key to Decol (substrate decolourized, decrease in absorbance) / Fluo (fluorescence multiplied by 2 relative to substrate-free control) / Co (growth, absorbance at 660 nm): The symbol “+” means good growth/decolourization/significant increase in fluorescence; The symbol “+/−” means difficult growth; The symbol “−” means that there is no growth/decolourization/significant increase in fluorescence; conditions: E. faecalis, substrate 35 mg/l
Protocol: as §1, §2, §3, §4, §5

Row | SMILES | Co (growth, absorbance at 660 nm) [1] | Decol (substrate decolourized, decrease in absorbance) [1] | Fluo (fluorescence multiplied by 2 relative to substrate-free control) [1] | RED (substrate reduced or not) [1] | Co (growth, absorbance at 660 nm) [2] | Decol (substrate decolourized, decrease in absorbance) [2] | Fluo (fluorescence multiplied by 2 relative to substrate-free control) [2] | RED (substrate reduced or not) [2] | Co (growth, absorbance at 660 nm) [3] | Decol (substrate decolourized, decrease in absorbance) [3] | Fluo (fluorescence multiplied by 2 relative to substrate-free control) [3] | RED (substrate reduced or not) [3] | Co (growth, absorbance at 660 nm) [4] | Decol (substrate decolourized, decrease in absorbance) [4] | Fluo (fluorescence multiplied by 2 relative to substrate-free control) [4] | RED (substrate reduced or not) [4] | Co (growth, absorbance at 660 nm) [5] | Decol (substrate decolourized, decrease in absorbance) [5] | Fluo (fluorescence multiplied by 2 relative to substrate-free control) [5] | Co (growth, absorbance at 660 nm) [6] | other results
1 | Oc1ccc2ccccc2c1/N=N/c1ccc(/C=C/c2ccnc3ccccc23)cc1 [BF38, 4″-Quinoline-4′-styryl-azo-2-Hydroxynaphthol] | + | − | − | N | + | + | − | Y | + | + | − | Y | + | − | − | N | − | − | − | + | Decol (substrate decolourized, decrease in absorbance) [6]: +; Fluo (fluorescence multiplied by 2 relative to substrate-free control) [6]: −; RED (substrate reduced or not) [6]: Y; Co (growth, absorbance at 660 nm) [7]: +; Decol (substrate decolourized, decrease in absorbance) [7]: +; Fluo (fluorescence multiplied by 2 relative to substrate-free control) [7]: −; RED (substrate reduced or not) [7]: Y; Co (growth, absorbance at 660 nm) [8]: +; Decol (substrate decolourized, decrease in absorbance) [8]: +; Fluo (fluorescence multiplied by 2 relative to substrate-free control) [8]: −; RED (substrate reduced or not) [8]: Y; Co (growth, absorbance at 660 nm) [9]: +; Decol (substrate decolourized, decrease in absorbance) [9]: −; Fluo (fluorescence multiplied by 2 relative to substrate-free control) [9]: −; RED (substrate reduced or not) [9]: N; Co (growth, absorbance at 660 nm) [10]: +; Decol (substrate decolourized, decrease in absorbance) [10]: +; Fluo (fluorescence multiplied by 2 relative to substrate-free control) [10]: −; RED (substrate reduced or not) [10]: Y
2 | O=S(=O)([O-])c1ccc(/N=N/c2ccc(O)c3ccccc23)cc1.[Na+] [Orange I] | + | − | − | N | + | + | − | Y | + | + | − | Y | +/− | − | − | N | − | − | − | + | Decol (substrate decolourized, decrease in absorbance) [6]: −; Fluo (fluorescence multiplied by 2 relative to substrate-free control) [6]: −; RED (substrate reduced or not) [6]: N; Co (growth, absorbance at 660 nm) [7]: +; Decol (substrate decolourized, decrease in absorbance) [7]: +; Fluo (fluorescence multiplied by 2 relative to substrate-free control) [7]: −; RED (substrate reduced or not) [7]: Y; Co (growth, absorbance at 660 nm) [8]: +; Decol (substrate decolourized, decrease in absorbance) [8]: +; Fluo (fluorescence multiplied by 2 relative to substrate-free control) [8]: −; RED (substrate reduced or not) [8]: Y; Co (growth, absorbance at 660 nm) [9]: +; Decol (substrate decolourized, decrease in absorbance) [9]: +/−; Fluo (fluorescence multiplied by 2 relative to substrate-free control) [9]: −; RED (substrate reduced or not) [9]: Y; Co (growth, absorbance at 660 nm) [10]: +; Decol (substrate decolourized, decrease in absorbance) [10]: +; Fluo (fluorescence multiplied by 2 relative to substrate-free control) [10]: −; RED (substrate reduced or not) [10]: Y
